Consider eleven compounds from ChEMBL document CHEMBL1151441, “Antimicrobial susceptibilities and clinical sources of Dialister species” (2007).

Usually MIC stands for the lowest concentration found to suppress growth. For orientation: MIC50 means an inhibitory concentration at the 50% level, which refers to growth in some studies and to a panel of isolates in others. A lower MIC50 goes with greater potency. As a reminder, the MIC90 is the lowest concentration that inhibits either 90% of growth or 90% of the strains tested, depending on the study. A high value points to lower susceptibility.

Common to all, as to format: functional
The subject of experiment [1] is Dialister pneumosintes. The experiment is described as follows: Antimicrobial activity against Dialister pneumosintes assessed as susceptibility breakpoint by CLSI method.
Experiment [2] has as its system Dialister invisus. The experiment is described as follows: Antimicrobial activity against Dialister invisus assessed as susceptibility breakpoint by CLSI method.
Experiment [3] deals with Dialister micraerophilus. Description: Antimicrobial activity against Dialister micraerophilus assessed as susceptibility breakpoint by CLSI method.
For experiment [4], the system named is Dialister propionicifaciens. Description: Antimicrobial activity against Dialister propionicifaciens assessed as susceptibility breakpoint by CA-SFM method.
Experiment [5] relates to Dialister propionicifaciens. The experiment is described as follows: Antimicrobial activity against Dialister propionicifaciens by agar dilution method. On the technique in general: In agar dilution, organisms are placed on agar that contains the substance at set levels.
In experiment [6] the test system is Dialister pneumosintes. The experiment is described as follows: Antimicrobial activity against Dialister pneumosintes by agar dilution method.
In experiment [7] the test system is Dialister pneumosintes. Description: Antimicrobial activity against Dialister pneumosintes assessed as susceptibility breakpoint by CA-SFM method.
The test system of experiment [8] is Dialister micraerophilus. The experiment is described as follows: Antimicrobial activity against Dialister micraerophilus by agar dilution method.
For experiment [9], the system named is Dialister propionicifaciens. The experiment is described as follows: Antimicrobial activity against Dialister propionicifaciens assessed as susceptibility breakpoint by CLSI method.
Experiment [10] deals with Dialister invisus. Description: Antimicrobial activity against Dialister invisus assessed as susceptibility breakpoint by CA-SFM method.
The subject of experiment [11] is Dialister micraerophilus. The experiment is described as follows: Antimicrobial activity against Dialister micraerophilus assessed as susceptibility breakpoint by CA-SFM method.
For experiment [12], the system named is Dialister invisus. The experiment is described as follows: Antimicrobial activity against Dialister invisus by agar dilution method.

SMILES strings stand for the structures. In brackets after ≈: the same amount, converted by molar mass. A value given as a limit tells only on which side of the number the result lay.

For the compound `C[C@@H](O)[C@H]1C(=O)N2C(C(=O)O)=C(S[C@@H]3CN[C@H](C(=O)Nc4cccc(C(=O)O)c4)C3)[C@H](C)[C@H]12`, the Activity result (in the experiment with Dialister pneumosintes [1]; with Dialister invisus [2]; in the experiment with Dialister micraerophilus [3]; in experiment [4]; with Dialister pneumosintes [7]; in experiment [9]) was “<=4 ug ml-1” throughout. Also, the Activity entry in the experiment with Dialister invisus [10] and in the experiment on Dialister micraerophilus [11] was “<=4 ug ml-1” in each case. Also, the MIC (in experiment [5]; in the experiment with Dialister pneumosintes [6]; with Dialister micraerophilus [8]) was 0.125 µg/mL (≈ 0.263 µM) each time. The MIC50 against Dialister pneumosintes [6] is 0.125 µg/mL (≈ 0.263 µM). Further, the MIC90 against Dialister pneumosintes [6] came to 0.125 µg/mL (≈ 0.263 µM).
Consider `CC1(C)S[C@@H]2[C@H](NC(=O)[C@H](N)c3ccc(O)cc3)C(=O)N2[C@H]1C(=O)O` [AMOXICILLIN], for which the Activity result (in the experiment on Dialister pneumosintes [1]; in the experiment on Dialister invisus [2]; with Dialister micraerophilus [3]; in experiment [4]; in the experiment with Dialister pneumosintes [7]; in experiment [9]) was “<=0.5 ug ml-1” throughout. Also, the Activity result in the experiment on Dialister invisus [10] and in the experiment with Dialister micraerophilus [11] was “<=0.5 ug ml-1” in each case. In addition, the minimum inhibitory concentration (MIC) (in experiment [5]; with Dialister pneumosintes [6]; with Dialister invisus [12]; against Dialister micraerophilus [8]) was no more than 0.06 µg/mL throughout. Moreover, the MIC50 in the experiment on Dialister pneumosintes [6] and with Dialister micraerophilus [8] was no more than 0.06 µg/mL throughout. Moreover, the MIC90 against Dialister pneumosintes [6] and against Dialister micraerophilus [8] was no more than 0.06 µg/mL each time.
Take `CO[C@@]1(NC(=O)Cc2cccs2)C(=O)N2C(C(=O)O)=C(COC(N)=O)CS[C@@H]21` [CEFOXITIN]: the Activity result with Dialister pneumosintes [1] is “<=16 ug ml-1”; in the experiment with Dialister invisus [2], “<=16 ug ml-1”; with Dialister micraerophilus [3] it was “<=16 ug ml-1”; in experiment [4], “<=8 ug ml-1”; with Dialister pneumosintes [7] it was “<=8 ug ml-1”; in [9] it was “<=16 ug ml-1”. The Activity result with Dialister invisus [10] and in the experiment on Dialister micraerophilus [11] was “<=8 ug ml-1” in each case. Also, the minimal inhibitory concentration (MIC) (in [5]; against Dialister pneumosintes [6]; in the experiment with Dialister invisus [12]; against Dialister micraerophilus [8]) was 0.5 µg/mL (≈ 1.17 µM) each time. Moreover, the MIC50 in the experiment with Dialister pneumosintes [6] and in the experiment with Dialister micraerophilus [8] was 0.5 µg/mL (≈ 1.17 µM) in each case. The MIC90 in the experiment on Dialister pneumosintes [6] amounted to 1 µg/mL (≈ 2.34 µM); against Dialister micraerophilus [8] it was 0.5 µg/mL (≈ 1.17 µM).
Take `CC(=O)OCC1=C(C(=O)O)N2C(=O)[C@@H](NC(=O)Cc3cccs3)[C@H]2SC1` [CEPHALOTHIN]: the Activity result (in experiment [4]; in the experiment with Dialister pneumosintes [7]; in the experiment on Dialister invisus [10]; in the experiment on Dialister micraerophilus [11]) was “<=8 ug ml-1” throughout. Besides, the MIC (in experiment [5]; against Dialister pneumosintes [6]; against Dialister micraerophilus [8]) was 0.25 µg/mL (≈ 0.631 µM) each time. In the experiment with Dialister pneumosintes [6], this compound returned an MIC50 of 0.5 µg/mL (≈ 1.26 µM). The compound also registered an MIC90 with Dialister pneumosintes [6] of 1 µg/mL (≈ 2.52 µM).
In the case of `O=C(O)c1cn(C2CC2)c2cc(N3CCNCC3)c(F)cc2c1=O` [CIPROFLOXACIN], the Activity result (in [4]; in the experiment on Dialister pneumosintes [7]; in the experiment with Dialister invisus [10]; with Dialister micraerophilus [11]) was “<=0.5 ug ml-1” in each case. Moreover, the minimal inhibitory concentration (MIC) (in [5]; in the experiment with Dialister pneumosintes [6]; against Dialister invisus [12]; against Dialister micraerophilus [8]) was no more than 0.06 µg/mL each time. Further, the MIC50 against Dialister pneumosintes [6] and in the experiment with Dialister micraerophilus [8] was no more than 0.06 µg/mL in each case. For the same compound, the MIC90 against Dialister pneumosintes [6] and against Dialister micraerophilus [8] was no more than 0.06 µg/mL in each case.
On to `C[C@H]1c2cccc(O)c2C(=O)C2=C(O)[C@]3(O)C(=O)C(C(N)=O)=C(O)[C@@H](N(C)C)[C@@H]3[C@@H](O)[C@@H]21.O` [DOXYCYCLINE], for which the Activity result (in [4]; in the experiment on Dialister pneumosintes [7]; with Dialister invisus [10]; with Dialister micraerophilus [11]) was “<=4 ug ml-1” throughout. Besides, the MIC (in [5]; with Dialister pneumosintes [6]; in the experiment on Dialister micraerophilus [8]) was no more than 0.06 µg/mL each time. This compound also yielded an MIC50 in the experiment with Dialister pneumosintes [6] of 0.25 µg/mL. In addition, the MIC90 in the experiment on Dialister pneumosintes [6] came to 0.25 µg/mL.
Turning to `CC[C@H]1OC(=O)[C@H](C)[C@@H](O[C@H]2C[C@@](C)(OC)[C@@H](O)[C@H](C)O2)[C@H](C)[C@@H](O[C@@H]2O[C@H](C)C[C@H](N(C)C)[C@H]2O)[C@](C)(O)C[C@@H](C)C(=O)[C@H](C)[C@@H](O)[C@]1(C)O` [ERYTHROMYCIN], the Activity entry (in experiment [4]; with Dialister pneumosintes [7]; with Dialister invisus [10]; in the experiment with Dialister micraerophilus [11]) was “<=1 ug ml-1” throughout. Also, the minimum inhibitory concentration (MIC) (in [5]; against Dialister pneumosintes [6]; with Dialister micraerophilus [8]) was 0.125 µg/mL (≈ 0.17 µM) each time. Also, the MIC50 against Dialister pneumosintes [6] was determined as 1 µg/mL (≈ 1.36 µM). Also, in the experiment on Dialister pneumosintes [6], the MIC90 came to 2 µg/mL (≈ 2.73 µM).
On to `C[C@H]1COc2c(N3CCN(C)CC3)c(F)cc3c(=O)c(C(=O)O)cn1c23.C[C@H]1COc2c(N3CCN(C)CC3)c(F)cc3c(=O)c(C(=O)O)cn1c23.O` [LEVOFLOXACIN], for which the Activity result (in experiment [4]; in the experiment with Dialister pneumosintes [7]; with Dialister invisus [10]; in the experiment on Dialister micraerophilus [11]) was “<=1 ug ml-1” in each case. Further, the minimal inhibitory concentration (MIC) (in [5]; in the experiment with Dialister pneumosintes [6]; in the experiment with Dialister micraerophilus [8]) was 0.25 µg/mL each time. In the experiment on Dialister pneumosintes [6], this compound returned an MIC50 of 0.25 µg/mL. The MIC90 in the experiment on Dialister pneumosintes [6] came out at 0.5 µg/mL.
Take `COc1c(N2C[C@@H]3CCCN[C@@H]3C2)c(F)cc2c(=O)c(C(=O)O)cn(C3CC3)c12` [MOXIFLOXACIN]: the minimum inhibitory concentration (MIC) (in experiment [5]; against Dialister pneumosintes [6]; with Dialister invisus [12]; in the experiment on Dialister micraerophilus [8]) was no more than 0.06 µg/mL in each case. Moreover, the MIC50 against Dialister pneumosintes [6] and in the experiment on Dialister micraerophilus [8] was no more than 0.06 µg/mL each time. Also, the MIC90 amounted to 0.06 µg/mL (≈ 0.149 µM) in the experiment with Dialister pneumosintes [6] and 0.25 µg/mL (≈ 0.623 µM) against Dialister micraerophilus [8]. The Activity result in the experiment on Dialister pneumosintes [7] and with Dialister micraerophilus [11] was “<=1 ug ml-1” in each case.
On to `CO[C@H]1/C=C/O[C@@]2(C)Oc3c(C)c(O)c4c(O)c(c(/C=N/N5CCN(C)CC5)c(O)c4c3C2=O)NC(=O)/C(C)=C\C=C\[C@H](C)[C@H](O)[C@@H](C)[C@@H](O)[C@@H](C)[C@H](OC(C)=O)[C@@H]1C` [RIFAMPIN], for which the Activity result (in experiment [4]; with Dialister pneumosintes [7]; in the experiment with Dialister invisus [10]; in the experiment with Dialister micraerophilus [11]) was “<=2 ug ml-1” throughout. For the same compound, the MIC (in experiment [5]; in the experiment on Dialister pneumosintes [6]; in the experiment with Dialister invisus [12]; against Dialister micraerophilus [8]) was no more than 0.06 µg/mL each time. The MIC50 against Dialister pneumosintes [6] is 2 µg/mL (≈ 2.43 µM); against Dialister micraerophilus [8], no more than 0.06 µg/mL. Also, the MIC90 was 4 µg/mL (≈ 4.86 µM) in the experiment on Dialister pneumosintes [6] and no more than 0.06 µg/mL in the experiment with Dialister micraerophilus [8].
For `CC[C@H]1OC(=O)[C@H](C)C(=O)[C@H](C)[C@@H](O[C@@H]2O[C@H](C)C[C@H](N(C)C)[C@H]2O)[C@](C)(OC)C[C@@H](C)C(=O)[C@H](C)[C@H]2N(CCCCn3cnc(-c4cccnc4)c3)C(=O)O[C@]12C` [TELITHROMYCIN], the Activity result (in experiment [4]; with Dialister pneumosintes [7]; with Dialister invisus [10]; in the experiment with Dialister micraerophilus [11]) was “<=0.5 ug ml-1” in each case. Moreover, the minimal inhibitory concentration (MIC) (in experiment [5]; against Dialister pneumosintes [6]; against Dialister invisus [12]; in the experiment on Dialister micraerophilus [8]) was no more than 0.06 µg/mL throughout. The MIC50 with Dialister pneumosintes [6] and against Dialister micraerophilus [8] was no more than 0.06 µg/mL each time. The MIC90 against Dialister pneumosintes [6] and against Dialister micraerophilus [8] was no more than 0.06 µg/mL throughout.
